The values below are quoted from earlier work in paper PMC5588751 (Nanotheranostics, 2017).

The series has as its system blood-brain barrier (BBB). The note with it: [20].

Take Ac-SHAVAS-NH2 [HAV4]: the “Brain delivery of Gd-DTPA (small molecular weight marker)” value (dose-dependent manner, MRI, ref [17], [18]) is reported as “significantly enhanced”. For the same substance, the “Duration of BBB opening for Gd-DTPA (small molecule)” value (pretreatment studies with Gd-DTPA detected by MRI, ref [18]) is “less than 1 h”.
